Measurements: publication PMC10224201, “Characterization of Non-Specific Uptake and Retention Mechanisms of [^177Lu]Lu-PSMA-617 in the Salivary Glands” (Pharmaceuticals, 2023)

Target: T1, PSMA (PC3-PIP cells) (Homo sapiens, UniProt Q04609)
T1 construct: gene FOLH1; full length, on intact PSMA-positive PC3-PIP prostate cancer cells (PC3-Flu as PSMA-negative control)
Assay: competition with […]Lu-PSMA-617 on cells, gamma counting
Type: cell-based
Conditions: read-out: % of control binding at 9000 μM

T1 sequence (Q04609 whole entry): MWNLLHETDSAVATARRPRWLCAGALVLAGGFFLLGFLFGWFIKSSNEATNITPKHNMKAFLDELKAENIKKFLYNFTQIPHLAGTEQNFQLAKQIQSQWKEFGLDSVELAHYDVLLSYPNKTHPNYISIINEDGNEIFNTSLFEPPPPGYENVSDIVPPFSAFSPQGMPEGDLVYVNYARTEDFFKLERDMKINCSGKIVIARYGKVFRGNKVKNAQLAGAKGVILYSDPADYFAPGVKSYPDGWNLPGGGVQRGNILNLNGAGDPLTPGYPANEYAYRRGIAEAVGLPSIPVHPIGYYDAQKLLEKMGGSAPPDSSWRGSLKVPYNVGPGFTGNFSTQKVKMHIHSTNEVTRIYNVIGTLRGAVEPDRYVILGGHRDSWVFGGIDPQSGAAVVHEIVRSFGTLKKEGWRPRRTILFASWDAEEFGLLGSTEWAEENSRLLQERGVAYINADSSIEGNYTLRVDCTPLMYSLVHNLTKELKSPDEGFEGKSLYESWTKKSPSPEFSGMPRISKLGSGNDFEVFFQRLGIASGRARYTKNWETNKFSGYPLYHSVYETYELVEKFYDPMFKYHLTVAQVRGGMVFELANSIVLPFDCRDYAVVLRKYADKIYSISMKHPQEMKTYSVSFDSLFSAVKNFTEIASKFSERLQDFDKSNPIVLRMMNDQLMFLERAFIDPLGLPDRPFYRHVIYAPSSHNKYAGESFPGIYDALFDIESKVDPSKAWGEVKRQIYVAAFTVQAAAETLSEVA

N[C@@H](CCC(=O)O)C(=O)O [monosodium glutamate]
remaining activity at 9000 µM: 24.9 ± 3.64%
